Converted amounts (≈) assume the structure as drawn.
Columns and labels:
Type in all cases: functional
[1] = system: Fusarium oxysporum; test: Antifungal activity against Fusarium oxysporum at 50 ug/ml after 48 hrs by agar well diffusion method; conditions: read-out: DIZ
[2] = system: Aspergillus niger; test: Antifungal activity against Aspergillus niger at 25 ug/ml after 48 hrs by agar well diffusion method; conditions: read-out: DIZ
[3] = system: Staphylococcus aureus; test: Antibacterial activity against methicillin resistant Staphylococcus aureus MRSA090 at 100 ug/ml after 24 hrs by agar well diffusion method; conditions: MRSA090, 24 h, read-out: DIZ
[4] = system: Fusarium oxysporum; test: Antifungal activity against Fusarium oxysporum at 75 ug/ml after 48 hrs by agar well diffusion method; conditions: read-out: DIZ
[5] = system: Bacillus subtilis; test: Antibacterial activity against Bacillus subtilis at 50 ug/ml after 24 hrs by agar well diffusion method; conditions: read-out: DIZ
[6] = system: Klebsiella pneumoniae; test: Antibacterial activity against Klebsiella pneumoniae at 75 ug/ml after 24 hrs by agar well diffusion method; conditions: read-out: DIZ
[7] = system: Bacillus subtilis; test: Antibacterial activity against Bacillus subtilis at 25 ug/ml after 24 hrs by agar well diffusion method; conditions: read-out: DIZ
[8] = system: Fusarium verticillioides; test: Antifungal activity against Fusarium moniliforme at 75 ug/ml after 48 hrs by agar well diffusion method; conditions: read-out: DIZ
[9] = system: Aspergillus niger; test: Antifungal activity against Aspergillus niger at 50 ug/ml after 48 hrs by agar well diffusion method; conditions: read-out: DIZ
[10] = system: Fusarium oxysporum; test: Antifungal activity against Fusarium oxysporum at 100 ug/ml after 48 hrs by agar well diffusion method; conditions: read-out: DIZ
[11] = system: Escherichia coli; test: Antibacterial activity against Escherichia coli at 50 ug/ml after 24 hrs by agar well diffusion method; conditions: read-out: DIZ
[12] = system: Fusarium oxysporum; test: Antifungal activity against Fusarium oxysporum at 25 ug/ml after 48 hrs by agar well diffusion method; conditions: read-out: DIZ
[13] = system: Staphylococcus aureus; test: Antibacterial activity against Staphylococcus aureus incubated for overnight by microdilution method
[14] = system: Escherichia coli; test: Antibacterial activity against Escherichia coli at 100 ug/ml after 24 hrs by agar well diffusion method; conditions: read-out: DIZ
[15] = system: Staphylococcus aureus; test: Antibacterial activity against Staphylococcus aureus at 75 ug/ml after 24 hrs by agar well diffusion method; conditions: read-out: DIZ
[16] = system: Fusarium verticillioides; test: Antifungal activity against Fusarium moniliforme at 25 ug/ml after 48 hrs by agar well diffusion method; conditions: read-out: DIZ
[17] = system: Staphylococcus aureus; test: Antibacterial activity against Staphylococcus aureus at 100 ug/ml after 24 hrs by agar well diffusion method; conditions: read-out: DIZ
[18] = system: Aspergillus niger; test: Antifungal activity against Aspergillus niger after 48 to 72 hrs by microdilution method
[19] = system: Fusarium oxysporum; test: Antifungal activity against Fusarium oxysporum after 48 to 72 hrs by microdilution method
[20] = system: Staphylococcus aureus; test: Antibacterial activity against methicillin resistant Staphylococcus aureus MRSA090 at 50 ug/ml after 24 hrs by agar well diffusion method; conditions: MRSA090, 24 h, read-out: DIZ
[21] = system: Klebsiella pneumoniae; test: Antibacterial activity against Klebsiella pneumoniae at 50 ug/ml after 24 hrs by agar well diffusion method; conditions: read-out: DIZ
[22] = system: Staphylococcus aureus; test: Antibacterial activity against Staphylococcus aureus at 25 ug/ml after 24 hrs by agar well diffusion method; conditions: read-out: DIZ
[23] = system: Aspergillus niger; test: Antifungal activity against Aspergillus niger at 100 ug/ml after 48 hrs by agar well diffusion method; conditions: read-out: DIZ
[24] = system: Staphylococcus aureus; test: Antibacterial activity against methicillin resistant Staphylococcus aureus MRSA090 at 75 ug/ml after 24 hrs by agar well diffusion method; conditions: MRSA090, 24 h, read-out: DIZ
[25] = system: Staphylococcus aureus; test: Antibacterial activity against methicillin resistant Staphylococcus aureus MRSA090 at 25 ug/ml after 24 hrs by agar well diffusion method; conditions: MRSA090, 24 h, read-out: DIZ
[26] = system: Bacillus subtilis; test: Antibacterial activity against Bacillus subtilis at 75 ug/ml after 24 hrs by agar well diffusion method; conditions: read-out: DIZ
[27] = system: Bacillus subtilis; test: Antibacterial activity against Bacillus subtilis incubated for overnight by microdilution method
[28] = system: Fusarium verticillioides; test: Antifungal activity against Fusarium moniliforme at 50 ug/ml after 48 hrs by agar well diffusion method; conditions: read-out: DIZ
[29] = system: Aspergillus niger; test: Antifungal activity against Aspergillus niger at 75 ug/ml after 48 hrs by agar well diffusion method; conditions: read-out: DIZ
[30] = system: Fusarium verticillioides; test: Antifungal activity against Fusarium moniliforme after 48 to 72 hrs by microdilution method
[31] = system: Staphylococcus aureus; test: Antibacterial activity against methicillin resistant Staphylococcus aureus MRSA090 incubated for overnight by microdilution method
[32] = system: Klebsiella pneumoniae; test: Antibacterial activity against Klebsiella pneumoniae at 25 ug/ml after 24 hrs by agar well diffusion method; conditions: read-out: DIZ
[33] = system: Escherichia coli; test: Antibacterial activity against Escherichia coli incubated for overnight by microdilution method
[34] = system: Escherichia coli; test: Antibacterial activity against Escherichia coli at 75 ug/ml after 24 hrs by agar well diffusion method; conditions: read-out: DIZ
[35] = system: Klebsiella pneumoniae; test: Antibacterial activity against Klebsiella pneumoniae incubated for overnight by microdilution method
[36] = system: Escherichia coli; test: Antibacterial activity against Escherichia coli at 25 ug/ml after 24 hrs by agar well diffusion method; conditions: read-out: DIZ
[37] = system: Staphylococcus aureus; test: Antibacterial activity against Staphylococcus aureus at 50 ug/ml after 24 hrs by agar well diffusion method; conditions: read-out: DIZ
[38] = system: Bacillus subtilis; test: Antibacterial activity against Bacillus subtilis at 100 ug/ml after 24 hrs by agar well diffusion method; conditions: read-out: DIZ
[39] = system: Klebsiella pneumoniae; test: Antibacterial activity against Klebsiella pneumoniae at 100 ug/ml after 24 hrs by agar well diffusion method; conditions: read-out: DIZ
[40] = system: Fusarium verticillioides; test: Antifungal activity against Fusarium moniliforme at 100 ug/ml after 48 hrs by agar well diffusion method; conditions: read-out: DIZ

SMILES	zone of inhibition at 50 µg/mL [1] [mm]	zone of inhibition at 25 µg/mL [2] [mm]	zone of inhibition at 100 µg/mL [3] [mm]	zone of inhibition at 75 µg/mL [4] [mm]	zone of inhibition at 50 µg/mL [5] [mm]	zone of inhibition at 75 µg/mL [6] [mm]	zone of inhibition at 25 µg/mL [7] [mm]	zone of inhibition at 75 µg/mL [8] [mm]	zone of inhibition at 50 µg/mL [9] [mm]	zone of inhibition at 100 µg/mL [10] [mm]	zone of inhibition at 50 µg/mL [11] [mm]	zone of inhibition at 25 µg/mL [12] [mm]	MIC [13] [µg/mL]	zone of inhibition at 100 µg/mL [14] [mm]	zone of inhibition at 75 µg/mL [15] [mm]	zone of inhibition at 25 µg/mL [16] [mm]	zone of inhibition at 100 µg/mL [17] [mm]	MIC [18] [µg/mL]	MIC [19] [µg/mL]	zone of inhibition at 50 µg/mL [20] [mm]	other results
COc1cc(/C=N/Nc2nc3cccc(C)c3s2)cc(OC)c1OC	11	9	34	17	24	33	19	33	14	20	25	7	19 (≈ 53.2 µM)	36	33	23	38	30 (≈ 83.9 µM)	23 (≈ 64.3 µM)	25	zone of inhibition at 50 µg/mL [21]: 27 mm; zone of inhibition at 25 µg/mL [22]: 22 mm; zone of inhibition at 100 µg/mL [23]: 21 mm; zone of inhibition at 75 µg/mL [24]: 31 mm; zone of inhibition at 25 µg/mL [25]: 19 mm; zone of inhibition at 75 µg/mL [26]: 28 mm; MIC [27]: 18 µg/mL (≈ 50.4 µM); zone of inhibition at 50 µg/mL [28]: 28 mm; zone of inhibition at 75 µg/mL [29]: 20 mm; MIC [30]: 26 µg/mL (≈ 72.7 µM); MIC [31]: 19 µg/mL (≈ 53.2 µM); zone of inhibition at 25 µg/mL [32]: 21 mm; MIC [33]: 20 µg/mL (≈ 56 µM); zone of inhibition at 75 µg/mL [34]: 31 mm; MIC [35]: 22 µg/mL (≈ 61.5 µM); zone of inhibition at 25 µg/mL [36]: 20 mm; zone of inhibition at 50 µg/mL [37]: 28 mm; zone of inhibition at 100 µg/mL [38]: 33 mm; zone of inhibition at 100 µg/mL [39]: 38 mm; zone of inhibition at 100 µg/mL [40]: 37 mm
Cc1cccc2nc(N/N=C/c3cc(O)c(O)c(O)c3)sc12	22	10	37	27	22	28	14	26	14	33	20	15	17 (≈ 53.9 µM)	37	28	10	31	28 (≈ 88.8 µM)	22 (≈ 69.8 µM)	26	zone of inhibition at 50 µg/mL [21]: 23 mm; zone of inhibition at 25 µg/mL [22]: 17 mm; zone of inhibition at 100 µg/mL [23]: 23 mm; zone of inhibition at 75 µg/mL [24]: 33 mm; zone of inhibition at 25 µg/mL [25]: 20 mm; zone of inhibition at 75 µg/mL [26]: 27 mm; MIC [27]: 15 µg/mL (≈ 47.6 µM); zone of inhibition at 50 µg/mL [28]: 17 mm; zone of inhibition at 75 µg/mL [29]: 20 mm; MIC [30]: 25 µg/mL (≈ 79.3 µM); MIC [31]: 18 µg/mL (≈ 57.1 µM); zone of inhibition at 25 µg/mL [32]: 17 mm; MIC [33]: 19 µg/mL (≈ 60.2 µM); zone of inhibition at 75 µg/mL [34]: 26 mm; MIC [35]: 24 µg/mL (≈ 76.1 µM); zone of inhibition at 25 µg/mL [36]: 14 mm; zone of inhibition at 50 µg/mL [37]: 24 mm; zone of inhibition at 100 µg/mL [38]: 35 mm; zone of inhibition at 100 µg/mL [39]: 37 mm; zone of inhibition at 100 µg/mL [40]: 34 mm
Cc1cccc2nc(N/N=C/c3cc4ccccc4[nH]3)sc12	24	12	30	31	14	18	10	9	19	36	24	17	24 (≈ 78.3 µM)	33	24	8	30	25 (≈ 81.6 µM)	22 (≈ 71.8 µM)	23	zone of inhibition at 50 µg/mL [21]: 9 mm; zone of inhibition at 25 µg/mL [22]: 14 mm; zone of inhibition at 100 µg/mL [23]: 30 mm; zone of inhibition at 75 µg/mL [24]: 27 mm; zone of inhibition at 25 µg/mL [25]: 16 mm; zone of inhibition at 75 µg/mL [26]: 19 mm; MIC [27]: 25 µg/mL (≈ 81.6 µM); zone of inhibition at 50 µg/mL [28]: 14 mm; zone of inhibition at 75 µg/mL [29]: 24 mm; MIC [30]: 24 µg/mL (≈ 78.3 µM); MIC [31]: 22 µg/mL (≈ 71.8 µM); zone of inhibition at 25 µg/mL [32]: 4 mm; MIC [33]: 24 µg/mL (≈ 78.3 µM); zone of inhibition at 75 µg/mL [34]: 30 mm; MIC [35]: 25 µg/mL (≈ 81.6 µM); zone of inhibition at 25 µg/mL [36]: 17 mm; zone of inhibition at 50 µg/mL [37]: 18 mm; zone of inhibition at 100 µg/mL [38]: 21 mm; zone of inhibition at 100 µg/mL [39]: 24 mm; zone of inhibition at 100 µg/mL [40]: 22 mm
